The values below come from patent US20080145313A1, “Compositions and Methods for the Treatment and Prevention of Neoplastic Disorders” (Genesis Research & Development Corporation Limited, priority 2006, published 2008).

In one series the test system is YBX1 mRNA. The series is described as follows: YBX1 mRNA level by quantitative RT-PCR in A549 cells. Format: cell-based, human. Conditions: 24 h post-transfection. The protocol:
A549 cells were transfected with 10 nM RRM1-1 (SEQ ID NO: 4830 (DNA), and SEQ ID NO: 5136 (RNA); light grey bar in FIG. 12A), RRM1-2 (SEQ ID NO: 4831 (DNA), and SEQ ID NO: 5137 (RNA); dark grey bar in FIG. 12A), RRM1-3 (SEQ ID NO: 4832 (DNA), and SEQ ID NO: 5138 (RNA); black bar in FIG. 12A) or control siRNA (SEQ ID NO: 4804 (DNA), and SEQ ID NO: 5301 (RNA)) (open bar in FIG. 12A) and relative mRNA levels quantified 24 h post-transfection. RNA was purified from cells using Trizol® extraction as per the manufacturer's protocol (Invitrogen). cDNA was prepared by digesting approximately 200 ng purified RNA with DNAse I (Invitrogen) for 15 minutes at room temperature, followed by 15 minutes at 65° C. in the presence of 25 mM EDTA. 30 ng random primers were added and incubated for 10 minutes at room temperature, 1 minute on ice; Superscript III polymerase (Invitrogen) was added in presence of 5 nM DTT (Sigma, St Louis, Mo.) and 1 mM deoxyribonucleotides (Invitrogen), and the reaction incubated at 25° C. for 5 minutes, followed by an hour at 55° C. cDNA was diluted 1:3 in 10 mM Tris pH 7.0, and quantitative RT-PCR carried out on an ABI Prism 7900HT (Applied Biosciences, Inc., Foster City, Calif.) using FastStart TaqMan SYBRGreen (Roche, Basel, Switzerland) and specific primers at 360 nM for RRM1 and RRM2 and the housekeeping genes HPRT and Lamin. Primer sequence pairs used for RRM1, RRM2, HPRT and lamin are given in SEQ ID NO: 4881 and 4882; 4883 and 4884; 4885 and 4886; 4887 and 4888 respectively.
A549 cells were transfected with 0.1, 1.0 and 10 nM siRNA (given in SEQ ID NO: 4981 to 4985 (DNA), and SEQ ID NO: 5276-5280 (RNA)) and the relative mRNA levels quantified 24 h post-transfection as described in Example 8.

In another series the test system is A549 xenograft tumor. Put plainly: Xenograft tumor growth of A549 cells transfected with siRNA pre-implantation in CD-1 nude mice. The format is in vivo, mouse. Here is the method:
To determine the effect of RRM1 knockdown on tumor growth, A549 cells (human lung cancer cell line; ATCC No. CCL-185) were reverse-transfected prior to implantation in CD-1 nude mice. In 175 cm^2 culture flasks, 10×10^6 A549 cells (in RPMI supplemented with 10% fetal calf serum) were added to pre-made lipoplexes. To make lipoplexes, Lipofectamine RNAiMAX in serum-free RPMI was added to an equal volume of serum-free RPMI containing siRNA (RRM1-2; SEQ ID NO: 4831 (DNA), and SEQ ID NO: 5137 (RNA)) and a control siRNA (SEQ ID NO: 4804 (DNA), and SEQ ID NO: 5301 (RNA)). After addition of cells, the final concentration of siRNA in the flask was 10 nM. Untransfected cells served as a further control. Flasks were incubated at 37° C. for 24 h to allow transfection to proceed.
The cells were harvested by trypsinization 24 h after the transfection, washed twice in PBS and viable cells were counted. Equal numbers of cells (1×10^7) were inoculated into CD-1 nude mice (n=7-9). Briefly, 5 to 7 weeks old nude mice were subcutaneously (s.c.) injected in the right flank with A549 cells in 100 μl PBS. Tumor growth was monitored 3 times per week by measuring tumor sizes using a digital caliper. Tumor volume was expressed in […] using the formula: V=a^2×b×0.52, where a and b represent the minimum and maximum tumor diameter, respectively. Mean tumor volumes calculated from each measurement were then plotted in a standard graph to compare the tumor growth of transfected cells to that of control.
To determine the effect of siRNA-mediated knockdown of HK-II, CAD, IMPDH2, RRM2, SLC16A1 and SLC29A1 on tumor growth, A549 cells (human lung cancer cell line; ATCC No. CCL-185) were reverse-transfected prior to implantation in CD-1 nude mice as described above with siRNAs given in SEQ ID NO: 5307 (DNA), and SEQ ID NO: 5304 (RNA) for RRM2, SEQ ID NO: 4932 (DNA), and SEQ ID NO: 5227 (RNA) for ENT1, SEQ ID NO: 4813 (DNA), and SEQ ID NO: 5119 (RNA) for HK-II, SEQ ID NO: 4827 (DNA), and SEQ ID NO: 5133 (RNA) for CAD, SEQ ID NO: 4879 (DNA), and SEQ ID NO: 5182 (RNA) for IMPDH2 and SEQ ID NO: 4924 (DNA), and SEQ ID NO: 5219 (RNA) for SLC16A1, respectively. The siRNA given in SEQ ID NO: 4804 (DNA), and SEQ ID NO: 5301 (RNA) was used as control.
In two separate experiments, CD-1 mice were divided into five groups that received untransfected A549 cells, cells transfected with control siRNA or three different siRNAs (as listed above), respectively. Cells were transfected in vitro using the method as described in Example 8, and 24 h after transfection, s.c. inoculated into mice. Tumor growth was measured 3 times per week. In the first experiment, mice received cells transfected with siRNA targeting RRM2, HK-II or SLC29A1 and were monitored for 33 days. In the second experiment, mice received cells transfected with siRNA targeting CAD, IMPDH2 or SLC16A1, and were monitored for 26 days. […] Similarly, preliminary data indicated tumor growth rate was reduced for the groups receiving cells transfected with siRNA targeting CAD and SLC16A1. Twenty-six days after cell inoculation, the tumor volume for mice with cells transfected with siRNA targeting CAD or SLC16A1 was 97.2±7.3 mm^3 or 110.1±28.1 mm^3, respectively.

With “SEQ ID NO: 4985: siRNA targeting YBX1 (chain 1 CAGCCTAGAGAGGACGGCAATGAAG; chain 2 CAGCCUAGAGAGGACGGCAAUGAAG; chemistry not given here; one strand in two spellings)”, the “YBX1-specific reduction of mRNA levels in A549 cells” value (from here on “YBX1-specific reduction”) is “+ (At least 20% inhibition)” with YBX1 mRNA (0.1 nM siRNA), “++ (At least 50% inhibition)” in the series on YBX1 mRNA (1 nM siRNA) and “++ (At least 50% inhibition)” in the series on YBX1 mRNA (10 nM siRNA).

Substance “SEQ ID NO: 5307: Stealth siRNA targeting RRM2 (chain 1 AATTCATCCCAATGAGCTTCACAGG; chain 2 AAUUCAUCCCAAUGAGCUUCACAGG; Stealth siRNA, chemical pattern not given here; one strand in two spellings)” gave an average tumor size in the series with A549 xenograft tumor (thirty-three days after the cell inoculation, preliminary data) of 100.1±116.6 mm^3.

“SEQ ID NO: 4932: siRNA targeting SLC29A1 (ENT1) (chain 1 TGATAAAGTAGCCGAAGGCACTTTC; chain 2 UGAUAAAGUAGCCGAAGGCACUUUC; chemistry not given here; one strand in two spellings)”: the “tumor growth inhibition compared to the control groups” value in the series with A549 xenograft tumor (cells transfected pre-implantation, monitored 33 or 26 days) is “No tumor growth inhibition”. Take “SEQ ID NO: 4982: siRNA targeting YBX1 (chain 1 TTTGCTGGTAATTGCGTGGAGGACC; chain 2 UUUGCUGGUAAUUGCGUGGAGGACC; chemistry not given here; one strand in two spellings)”: the “YBX1-specific reduction” value with YBX1 mRNA (1 nM siRNA) and with YBX1 mRNA (10 nM siRNA) was “+++ (At least 70% inhibition)” in each case. As to “SEQ ID NO: 4983: siRNA targeting YBX1 (chain 1 TACTGTGGTCGACGCCCATAGGGTC; chain 2 UACUGUGGUCGACGCCCAUAGGGUC; chemistry not given here; one strand in two spellings)”, the “YBX1-specific reduction” value in the series with YBX1 mRNA (10 nM siRNA) is listed as “++ (At least 50% inhibition)”. As to “SEQ ID NO: 4984: siRNA targeting YBX1 (chain 1 CAAGGTAGACCAGTGAGGCAGAATA; chain 2 CAAGGUAGACCAGUGAGGCAGAAUA; chemistry not given here; one strand in two spellings)”, the “YBX1-specific reduction” value in the series on YBX1 mRNA (0.1 nM siRNA), with YBX1 mRNA (1 nM siRNA) and in the series on YBX1 mRNA (10 nM siRNA) was “+++ (At least 70% inhibition)” throughout.

Regarding “SEQ ID NO: 4924: siRNA targeting SLC16A1 (MCT1) (chain 1 TTAGACTTATCTTTCCCTGCCTTGG; chain 2 UUAGACUUAUCUUUCCCUGCCUUGG; chemistry not given here; one strand in two spellings)”, the “tumor growth rate compared to control groups” value in the series on A549 xenograft tumor (A549 cells transfected with siRNA before s.c. inoculation) is given as “reduced”. Besides, in the series with A549 xenograft tumor (twenty-six days after cell inoculation, preliminary data), the tumor volume was 110.1±28.1 mm^3.
